Laboratory results reported in ChEMBL document CHEMBL4007389, “Discovery and evaluation of inhibitors to the immunosuppressive enzyme indoleamine 2,3-dioxygenase 1 (IDO1): Probing the active site-inhibitor interactions” (Eur J Med Chem, 2017).

Legend:
[1] = target: T1, Indoleamine 2,3-dioxygenase 1 (Homo sapiens, UniProt P14902); test: Inhibition of recombinant human IDO1 expressed in bacterial expression system using L-Tryptophan as substrate after 25 mins in absence of GSH and presence of tween20 by fluorescence assay
Target sequence in this assay (P14902 whole entry): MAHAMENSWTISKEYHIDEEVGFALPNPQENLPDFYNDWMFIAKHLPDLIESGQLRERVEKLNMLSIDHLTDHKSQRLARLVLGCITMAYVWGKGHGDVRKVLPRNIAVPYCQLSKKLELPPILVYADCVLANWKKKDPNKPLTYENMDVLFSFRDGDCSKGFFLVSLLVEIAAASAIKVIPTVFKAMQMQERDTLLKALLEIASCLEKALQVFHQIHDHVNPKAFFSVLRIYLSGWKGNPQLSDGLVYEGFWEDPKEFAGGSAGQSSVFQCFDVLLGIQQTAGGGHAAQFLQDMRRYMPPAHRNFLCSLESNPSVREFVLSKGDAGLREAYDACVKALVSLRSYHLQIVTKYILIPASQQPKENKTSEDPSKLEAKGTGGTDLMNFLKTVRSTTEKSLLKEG

[2] = target: Indoleamine 2,3-dioxygenase 1 (Homo sapiens, UniProt P14902, S167A)
[3] = Cytotoxicity against mouse LLTC cells assessed as reduction in cell viability after 24 hrs by MTT assay; type: cell-based; details: read-out: LC50
[4] = species on record: Homo sapiens; test: Selectivity ratio of IC50 for recombinant human IDO1 S167A mutant expressed in Escherichia coli SG13009(pREP4) to IC50 for recombinant human IDO1 expressed in bacterial expression system
[5] = target: T1, Indoleamine 2,3-dioxygenase 1; test: Inhibition of recombinant human IDO1 expressed in bacterial expression system at 250 uM using L-Tryptophan as substrate after 25 mins by fluorescence assay relative to control
Target sequence in this assay (P14902 whole entry, looked up): as the sequence (P14902 whole entry) above

[6] = target: T1, Indoleamine 2,3-dioxygenase 1; test: Inhibition of full length recombinant human His-tagged IDO1 expressed in mouse LLTC cells using L-tryptophan as substrate after 24 hrs; type: cell-based
Target sequence in this assay (P14902 whole entry): as above

[7] = system: Indoleamine 2,3-dioxygenase 1 (Homo sapiens), P14902 [S167A]; test: Inhibition of recombinant human IDO1 S167A mutant expressed in Escherichia coli SG13009(pREP4) at 20 uM using L-Tryptophan as substrate after 25 mins by fluorescence assay relative to control
[8] = target: T1, Indoleamine 2,3-dioxygenase 1; details: 80 uM
Target sequence in this assay (P14902 whole entry, looked up): as the sequence (P14902 whole entry) above

[9] = target: T1, Indoleamine 2,3-dioxygenase 1; test: Inhibition of recombinant human IDO1 expressed in bacterial expression system using L-Tryptophan as substrate after 25 mins in absence of GSH and tween20 by fluorescence assay
Target sequence in this assay (P14902 whole entry): as above

[10] = target: T1, Indoleamine 2,3-dioxygenase 1; test: Inhibition of recombinant human IDO1 expressed in bacterial expression system using L-Tryptophan as substrate after 25 mins in presence of GSH and tween20 by fluorescence assay
Target sequence in this assay (P14902 whole entry): as above

[11] = target: T1, Indoleamine 2,3-dioxygenase 1; test: Inhibition of recombinant human IDO1 expressed in bacterial expression system at 200 uM using L-Tryptophan as substrate after 25 mins by fluorescence assay relative to control
Target sequence in this assay (P14902 whole entry, looked up): as the sequence (P14902 whole entry) above

[12] = target: T1, Indoleamine 2,3-dioxygenase 1; details: 30 uM
Target sequence in this assay (P14902 whole entry, looked up): as the sequence (P14902 whole entry) above

[13] = target: T1, Indoleamine 2,3-dioxygenase 1; test: Inhibition of recombinant human IDO1 expressed in bacterial expression system at 400 uM using L-Tryptophan as substrate after 25 mins by fluorescence assay relative to control
Target sequence in this assay (P14902 whole entry, looked up): as the sequence (P14902 whole entry) above

[14] = target: T1, Indoleamine 2,3-dioxygenase 1; test: Irreversible inhibition of recombinant human IDO1 expressed in bacterial expression system at 3 uM using L-Tryptophan as substrate after preincubated for 90 mins followed by 100 fold compound dilution measured after 15 mins by fluorescence assay relative to control
Target sequence in this assay (P14902 whole entry, looked up): as the sequence (P14902 whole entry) above

[15] = target: T1, Indoleamine 2,3-dioxygenase 1; test: Inhibition of recombinant human IDO1 expressed in bacterial expression system at 150 uM using L-Tryptophan as substrate after 25 mins by fluorescence assay relative to control
[16] = target: T1, Indoleamine 2,3-dioxygenase 1; test: Inhibition of recombinant human IDO1 expressed in bacterial expression system at 50 uM using L-Tryptophan as substrate after 25 mins by fluorescence assay relative to control
[17] = system: Indoleamine 2,3-dioxygenase 1 (Homo sapiens), P14902 [C129A]; test: Inhibition of recombinant human IDO1 C129A mutant expressed in Escherichia coli SG13009(pREP4) at 20 uM using L-Tryptophan as substrate after 25 mins by fluorescence assay relative to control
[18] = target: Indoleamine 2,3-dioxygenase 1 (Homo sapiens, UniProt P14902, C129A); test: Inhibition of recombinant human IDO1 C129A mutant expressed in Escherichia coli SG13009(pREP4) using L-Tryptophan as substrate after 25 mins by fluorescence assay
Chain of Indoleamine 2,3-dioxygenase 1 (Homo sapiens, UniProt P14902, C129A) (P14902 whole entry C129A): as the sequence (P14902 whole entry) above, with C129A counted along it

Chain of Indoleamine 2,3-dioxygenase 1 (Homo sapiens), P14902 [S167A] (P14902 whole entry S167A): as the sequence (P14902 whole entry) above, with S167A counted along it
Chain of Indoleamine 2,3-dioxygenase 1 (Homo sapiens, UniProt P14902, S167A) (P14902 whole entry S167A): as the sequence (P14902 whole entry) above, with S167A counted along it
Chain of Indoleamine 2,3-dioxygenase 1 (Homo sapiens), P14902 [C129A] (P14902 whole entry C129A): as the sequence (P14902 whole entry) above, with C129A counted along it

| SMILES | IC50 [1] [µM] | IC50 [2] [µM] | CC50 at 24 h [3] [µM] | Ratio IC50 [4] | further results |
| --- | --- | --- | --- | --- | --- |
| O=[N+]([O-])c1ccc(NCSc2ccc(Cl)cc2)cc1 | 0.8 | 0.1 | 40 | 0.125 | – |
| Cc1ccc(NCSc2ccc(Cl)cc2)cc1 | – | – | – | – | inhibition [5]: -1% |
| O=C(O)c1cc(F)c2nonc2c1Nc1ccc(I)cc1F | 43 | 47 | > 233 | 1 | IC50 [6]: 168 µM |
| C=Cc1cc(OC)c2c(c1)c(=O)oc1c2cc(OC)c2c(O)ccc([C@@H]3O[C@H](C)[C@H](O)[C@@](C)(O)[C@H]3O)c21 | 22.6 | 230 | – | 10.2 | inhibition [7]: 8% |
| Oc1ccccc1-c1nc2c3ccccc3c3ccccc3c2[nH]1 | 3.3 to 9 | 26 to 980 | > 100 | 8 to 109 | inhibition [8]: < 25%; inhibition [7]: 2%; IC50 [9]: 7.8 µM; IC50 [10]: 4.9 µM; IC50 [6]: 52 µM |
| Fc1ccccc1-c1nc2c3ccccc3c3ccccc3c2[nH]1 | 231 | 108 | – | 0.5 | – |
| COc1ccc(-c2cc3ccccc3[nH]2)cc1 | – | – | – | – | inhibition [11]: 16% |
| Clc1ccc(SCNc2ccccc2Cl)cc1 | 4.5 | 0.87 | 40 | 0.2 | inhibition [12]: < 25%; IC50 [9]: 5.5 µM; IC50 [10]: 1.5 µM; IC50 [6]: 6.3 µM |
| COc1c(O)ccc2c1CN1CCc3cc4c(cc3C1C2)OCO4 (stereo not given) | 35.6 | 1000 | – | 28.1 | – |
| CC1=CC(C)(C)NC(=S)N1c1cccc2cc(S(N)(=O)=O)ccc12 | 27.6 | 1000 | – | 36.2 | inhibition [7]: -8% |
| O=[N+]([O-])c1ccc(Sc2cccc[n+]2[O-])c2nonc12 | 24 to 60 | 108 to 1000 | – | 5 to 16.7 | inhibition [7]: -1% |
| O=[N+]([O-])c1ccccc1NCSc1ccc(Cl)cc1 | 63 | – | 52 | – | IC50 [6]: 6.3 µM |
| COc1cc2c(cc1OC)[N+]([O-])=C(c1ccccc1)C2=O | 4.1 to 60 | 206 to 1000 | 25 | 16.7 to 50 | inhibition [7]: 0%; IC50 [9]: 9.3 µM; IC50 [10]: 1.5 µM; IC50 [6]: 4.3 µM |
| O=[N+]([O-])c1ccc(Nc2ccc(Br)cc2)c2nonc12 | 68 | – | – | – | – |
| O=C1C(c2ccccc2)=[N+]([O-])c2ccccc21 | 0.87 | 3 | 14 | 3 | IC50 [6]: 2.3 µM |
| O=C1c2ccccc2C(=O)C1c1ccccc1 | – | – | – | – | inhibition [13]: 20% |
| O/N=C1\c2ccccc2NC1c1ccccc1 (stereo not given) | 510 | 366 | – | 1 | – |
| CC[C@@H](CNc1cc(OC)cc2cccnc12)NC1CCCCC1 | 54.1 | 1000 | – | 18.5 | inhibition [7]: -6% |
| COc1ccc(C2=[N+]([O-])c3ccccc3C2=O)cc1 | 1.6 | 63 | 42 | 39 | IC50 [6]: 2.3 µM |
| Cc1ccccc1C1=[N+]([O-])c2ccccc2C1=O | 0.46 | 2.2 | 12 | 5 | inhibition [14]: > 75%; IC50 [6]: 3.9 µM |
| CC(=O)OC1=C(c2ccccc2)C(=O)c2ccccc21 | 266 | – | – | – | – |
| O=C1c2ccccc2CC1c1ccccc1 (stereo not given) | – | – | – | – | inhibition [11]: 21% |
| CCC1=C(c2ccccc2)C(=O)c2ccccc21 | – | – | – | – | inhibition [15]: 20% |
| Oc1ccccc1-c1nc2ccccc2[nH]1 | – | – | – | – | inhibition [13]: 1% |
| COc1ccc(C2=C(N)c3ccccc3C2=O)cc1 | – | – | – | – | inhibition [16]: 13% |
| NNC(=O)CNc1cccc(Br)c1 | 1000 | – | – | – | inhibition [17]: 30.8%; IC50 [18]: 44.9 µM |
| COc1ccc(Nc2ccc([N+](=O)[O-])c3nonc23)cc1 | 96 | – | – | – | – |
| Cc1ccc2c(c1)c1ccc3c(c1n2C)C(=O)C=CC3=O | 46.7 | 1000 | – | 21.4 | inhibition [7]: -4% |
